Laboratory results as given in patent US20240059695A1, “SUBSTITUTED IMIDAZO[1,5-b]PYRIDAZINE COMPOUNDS AS KINASE INHIBITORS AND USE THEREOF” (IMPACT THERAPEUTICS (SHANGHAI), INC, priority 2020, published 2024).

Columns and labels:
[1] = target: T1, ATR/ATRIP enzyme (Homo sapiens, UniProt Q13535); experiment: ATR enzyme activity experiment (HTRF); format: biochemical; details: p53 substrate, 30 min room temperature, read-out: IC50 (nM), inhibitory effect on ATR kinase activity
T1 construct: purchased Eurofins 14-953
Procedure: The mixture was centrifuged at 1000 rpm for 1 minute, and reacted at room temperature protected from light for 30 minutes. Then 5 μL of EDTA stop solution (250 mM) was added to stop the reaction.

[2] = test system: human breast cancer HCC1806 cell; experiment: MTT proliferation assay of Example 1, HCC1806; format: cell-based; details: HCC1806, 96 h, 4 days
Procedure: The cells were digested by trypsinase and centrifuged at 800 rpm for 5 minutes, the supernatant was discarded, and the residual was resuspended with fresh medium (1640 medium+10% FRS) and counted. The cells were seeded into 96well cell culture plate with a density of 2000/4000 cells per well and incubated overnight in a 5% CO2 incubator at 37° C. The stock solutions of the test substances were serially diluted to 8 concentrations by DMSO at the ratios of 1:3 and 1:10, respectively. 5 μL diluent of each concentration was added to […] (25 times diluted) and mixed by shaking. The overnight cell plates were taken and the culture medium was removed, 195 μL of fresh medium was added to each well, and 5 μL of diluted medium containing the corresponding concentration of the test compound was added respectively (the final concentration of DMSO is 1%), and the culture plate was then placed in a 5% CO2 incubator at 37° C for 4 days. After removing the original solution, […] of fresh serum-free DMEM medium containing MTT (0.5 mg/mL) was added to each well, the culture was continued. After 4 hours, the original solution was removed, 100 μL, of DMSO was added to each well, the 96-well plates were shaken for 10 minutes in the dark and placed in a multi-function reader to read the absorbance at the wavelength of 552/690 nm. […]

[3] = test system: human ovarian cancer OVCAR-3 cell; experiment: Synergistic inhibition of Example 1 in combination with senaparib, MTT assay; format: cell-based; details: for Combination Index (CI): OVCAR-3, 3 days
Procedure: The cells were digested by trypsinase and centrifuged at 800 rpm for 5 minutes, the supernatant was discarded, and the residual was resuspended with fresh medium (1640 medium+10% FBS) and counted. The cells were seeded into 96-well cell culture plate with an appropriate density and incubated overnight in a 5% CO2 incubator at 37° C. The stock solutions of the test substances were serially diluted to 4-5 concentrations by DMSO at the ratios of 1:3, respectively. 5 µL diluent of each concentration was added to 120 μL of medium (25 times diluted) and mixed by shaking. The overnight cell plates were taken and the culture medium was removed, […] of fresh medium was added to each well, and 5 μL of diluted compound or 5 μL of medium containing DMSO was added respectively (the final concentration of DMSO is 1%), and the culture plate was then placed in a 5% CO2 incubator at 37° C. for 3 days. After removing the original solution, 100 μL of fresh serum-free DMEM medium containing MTT (0.5 mg/mL) was added to each well, the culture was continued. After 4 hours, the original solution was removed, 100 μL of DMSO was added to each well, the 96-well plates were shaken for 10 minutes in the dark and placed in a multi-function reader to read the absorbance at the wavelength of 552/690 nm. Cell viability (%)=(ODcompound−ODbackground)/(ODDMSO−ODbackground)×100. The combination index (CI) was calculated with the software CalcuSyn.

T1 sequence (Q13535 whole entry): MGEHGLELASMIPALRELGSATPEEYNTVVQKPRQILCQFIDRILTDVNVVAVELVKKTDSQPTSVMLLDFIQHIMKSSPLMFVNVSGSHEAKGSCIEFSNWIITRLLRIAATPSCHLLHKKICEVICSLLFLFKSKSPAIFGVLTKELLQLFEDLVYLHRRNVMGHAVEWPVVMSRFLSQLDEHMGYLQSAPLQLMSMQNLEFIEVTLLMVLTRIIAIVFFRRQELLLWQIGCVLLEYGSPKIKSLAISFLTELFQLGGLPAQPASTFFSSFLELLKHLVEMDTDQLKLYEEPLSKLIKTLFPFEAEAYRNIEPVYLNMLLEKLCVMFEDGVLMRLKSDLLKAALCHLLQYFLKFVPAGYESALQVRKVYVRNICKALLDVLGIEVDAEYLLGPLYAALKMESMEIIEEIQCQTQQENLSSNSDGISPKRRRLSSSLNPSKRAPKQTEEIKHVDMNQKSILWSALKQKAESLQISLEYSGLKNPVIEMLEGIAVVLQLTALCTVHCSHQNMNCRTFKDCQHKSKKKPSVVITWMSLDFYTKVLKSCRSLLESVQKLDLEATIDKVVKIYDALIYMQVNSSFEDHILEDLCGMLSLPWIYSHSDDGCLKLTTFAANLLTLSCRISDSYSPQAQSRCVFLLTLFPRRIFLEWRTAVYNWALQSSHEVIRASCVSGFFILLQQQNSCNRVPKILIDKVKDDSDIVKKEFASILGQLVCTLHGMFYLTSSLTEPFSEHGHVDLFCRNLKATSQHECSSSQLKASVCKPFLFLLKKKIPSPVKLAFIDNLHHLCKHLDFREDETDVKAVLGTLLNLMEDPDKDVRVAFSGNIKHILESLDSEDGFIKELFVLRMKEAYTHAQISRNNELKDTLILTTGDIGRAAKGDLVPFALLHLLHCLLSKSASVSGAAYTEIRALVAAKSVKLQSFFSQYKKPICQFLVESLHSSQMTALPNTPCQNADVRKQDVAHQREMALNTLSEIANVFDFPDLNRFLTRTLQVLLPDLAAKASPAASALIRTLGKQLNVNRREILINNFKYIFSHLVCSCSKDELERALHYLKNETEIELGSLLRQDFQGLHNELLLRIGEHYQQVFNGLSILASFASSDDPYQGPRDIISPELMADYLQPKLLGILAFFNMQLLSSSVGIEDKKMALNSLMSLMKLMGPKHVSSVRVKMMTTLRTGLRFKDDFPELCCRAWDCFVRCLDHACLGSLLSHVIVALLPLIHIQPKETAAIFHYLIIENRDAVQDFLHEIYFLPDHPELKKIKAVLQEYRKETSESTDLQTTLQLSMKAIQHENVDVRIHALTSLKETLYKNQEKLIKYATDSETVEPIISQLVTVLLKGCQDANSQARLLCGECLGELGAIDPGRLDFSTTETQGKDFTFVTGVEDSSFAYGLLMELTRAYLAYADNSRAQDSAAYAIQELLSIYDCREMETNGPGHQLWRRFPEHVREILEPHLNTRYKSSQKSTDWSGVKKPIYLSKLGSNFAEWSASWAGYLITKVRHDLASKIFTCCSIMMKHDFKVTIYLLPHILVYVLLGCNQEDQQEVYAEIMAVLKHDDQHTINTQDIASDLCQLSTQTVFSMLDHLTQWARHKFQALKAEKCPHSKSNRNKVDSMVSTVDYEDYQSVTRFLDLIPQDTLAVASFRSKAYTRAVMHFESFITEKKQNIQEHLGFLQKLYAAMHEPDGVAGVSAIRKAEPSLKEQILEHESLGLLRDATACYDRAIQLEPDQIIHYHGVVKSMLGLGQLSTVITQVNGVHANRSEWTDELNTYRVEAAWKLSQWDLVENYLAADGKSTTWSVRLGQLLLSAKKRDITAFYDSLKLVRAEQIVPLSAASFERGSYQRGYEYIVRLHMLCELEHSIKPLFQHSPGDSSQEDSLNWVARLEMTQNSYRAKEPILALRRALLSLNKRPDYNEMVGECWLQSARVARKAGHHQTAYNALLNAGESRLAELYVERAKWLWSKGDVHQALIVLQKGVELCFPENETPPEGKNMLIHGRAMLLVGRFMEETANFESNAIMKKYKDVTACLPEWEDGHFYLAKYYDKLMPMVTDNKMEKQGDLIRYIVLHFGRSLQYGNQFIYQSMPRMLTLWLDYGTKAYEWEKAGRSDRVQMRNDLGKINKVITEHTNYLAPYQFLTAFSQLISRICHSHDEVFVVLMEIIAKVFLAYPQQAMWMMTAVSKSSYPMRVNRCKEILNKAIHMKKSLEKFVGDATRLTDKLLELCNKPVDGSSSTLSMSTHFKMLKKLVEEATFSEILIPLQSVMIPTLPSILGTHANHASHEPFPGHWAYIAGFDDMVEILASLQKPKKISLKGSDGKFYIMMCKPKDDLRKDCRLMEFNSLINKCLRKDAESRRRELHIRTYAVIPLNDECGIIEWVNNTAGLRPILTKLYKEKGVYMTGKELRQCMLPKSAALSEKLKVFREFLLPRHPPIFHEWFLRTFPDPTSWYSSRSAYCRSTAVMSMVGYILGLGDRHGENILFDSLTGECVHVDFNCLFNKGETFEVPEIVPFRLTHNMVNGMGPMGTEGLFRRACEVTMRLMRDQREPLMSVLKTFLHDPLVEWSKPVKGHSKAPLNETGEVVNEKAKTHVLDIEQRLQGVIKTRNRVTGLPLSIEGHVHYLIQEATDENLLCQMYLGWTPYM
T1 sequence (Q8WXE1 whole entry partner): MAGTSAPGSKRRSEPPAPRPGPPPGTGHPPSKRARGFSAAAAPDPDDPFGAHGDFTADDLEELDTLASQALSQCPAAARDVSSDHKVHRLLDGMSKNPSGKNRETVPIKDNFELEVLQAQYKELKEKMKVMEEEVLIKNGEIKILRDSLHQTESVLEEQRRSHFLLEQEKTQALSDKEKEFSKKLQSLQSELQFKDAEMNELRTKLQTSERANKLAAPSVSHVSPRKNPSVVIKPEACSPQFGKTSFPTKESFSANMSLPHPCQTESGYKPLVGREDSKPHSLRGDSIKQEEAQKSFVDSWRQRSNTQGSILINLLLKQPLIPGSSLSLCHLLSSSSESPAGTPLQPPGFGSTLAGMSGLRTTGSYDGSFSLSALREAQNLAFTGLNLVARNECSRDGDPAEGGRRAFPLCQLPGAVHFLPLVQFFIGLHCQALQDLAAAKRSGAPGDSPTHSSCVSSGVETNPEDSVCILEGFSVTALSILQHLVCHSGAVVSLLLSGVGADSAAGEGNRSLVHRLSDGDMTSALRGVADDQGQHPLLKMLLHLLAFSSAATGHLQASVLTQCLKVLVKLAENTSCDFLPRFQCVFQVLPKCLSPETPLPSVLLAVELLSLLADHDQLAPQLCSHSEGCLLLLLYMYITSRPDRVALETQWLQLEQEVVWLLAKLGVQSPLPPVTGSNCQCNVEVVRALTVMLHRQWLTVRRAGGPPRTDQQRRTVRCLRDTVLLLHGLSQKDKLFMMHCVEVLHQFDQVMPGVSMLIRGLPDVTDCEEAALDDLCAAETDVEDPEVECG

Cc1nc(-c2ccn[nH]2)n2nc(N3CCOC[C@H]3C)cc(-c3ccnn3C)c12 [Example 1, (R)-3-methyl-4-(5-methyl-4-(1-methyl-1H-pyrazol-5-yl)-7-(1H-pyrazol-5-yl)imidazo[1,5-b]pyridazin-2-yl)morpholine]
IC50 [1]: 1 nM
IC50 [2]: 38.8 nM
Combination Index (CI) ([3]; 11 nM Example 1 + 37 nM senaparib): 1.157
Combination Index (CI) ([3]; 11 nM Example 1 + 111 nM senaparib): 0.215
Combination Index (CI) ([3]; 11 nM Example 1 + 333 nM senaparib): 0.069
Combination Index (CI) ([3]; 11 nM Example 1 + 1000 nM senaparib): 0.052
Combination Index (CI) ([3]; 11 nM Example 1 + 3000 nM senaparib): 0.044
Combination Index (CI) ([3]; 33 nM Example 1 + 37 nM senaparib): 0.275
Combination Index (CI) ([3]; 33 nM Example 1 + 111 nM senaparib): 0.213
Combination Index (CI) ([3]; 33 nM Example 1 + 333 nM senaparib): 0.18
Combination Index (CI) ([3]; 33 nM Example 1 + 1000 nM senaparib): 0.148
Combination Index (CI) ([3]; 33 nM Example 1 + 3000 nM senaparib): 0.12
Combination Index (CI) ([3]; 100 nM Example 1 + 37 nM senaparib): 0.603
Combination Index (CI) ([3]; 100 nM Example 1 + 111 nM senaparib): 0.544
Combination Index (CI) ([3]; 100 nM Example 1 + 333 nM senaparib): 0.488
Combination Index (CI) ([3]; 100 nM Example 1 + 1000 nM senaparib): 0.424
Combination Index (CI) ([3]; 100 nM Example 1 + 3000 nM senaparib): 0.364
Combination Index (CI) ([3]; 300 nM Example 1 + 37 nM senaparib): 1.588
Combination Index (CI) ([3]; 300 nM Example 1 + 111 nM senaparib): 1.471
Combination Index (CI) ([3]; 300 nM Example 1 + 333 nM senaparib): 1.377
Combination Index (CI) ([3]; 300 nM Example 1 + 1000 nM senaparib): 1.276
Combination Index (CI) ([3]; 300 nM Example 1 + 3000 nM senaparib): 1.195
synergistic effect on inhibiting the proliferation of OVCAR-3 cells (in words) ([3]; combination of Example 1 and senaparib): good synergistic effect
